{"source": "patent US9827177B2", "about": "“Antiperspirant products with protein and antiperspirant salts” (Colgate-Palmolive Company, priority 2012, dated 2017)", "key": {"[1]": {"test": "Hydrolysis reaction: turbidity and pH of diluted ZLC solutions before and after aging", "assay_type": "physicochemical", "settings": "for pH after aging / turbidity after aging (NTU): aged 37° C. over 5 hours; for initial turbidity (NTU): before aging", "protocol": "Hydrolysis reaction: A 185 mg/ml ZLC solution is prepared and diluted several-fold and aged in a 37° C. oven over 5 hours for turbidity studies. […] Turbidity of the solutions is measured using a nephelometer, results being given in nephelometric turbidity units (NTU).\nThe precipitates formed in the 8×, 16× and 32× diluted solutions are collected by centrifugation and identified as crystalline ZnO by PXRD. From the supernatant, a single crystal is grown and shown by X-ray diffraction to be Lysine Monohydrochloride Dihydrate (Lysine.HCl.2H2O)."}, "[2]": {"target": "T1, Bovine Serum Albumin (BSA) (Bos taurus, UniProt P02769)", "T1 construct": "is a serum albumin protein derived from the blood of cattle; from tissue; host or cells: blood of cattle", "T1 sequence (P02769 25-607)": "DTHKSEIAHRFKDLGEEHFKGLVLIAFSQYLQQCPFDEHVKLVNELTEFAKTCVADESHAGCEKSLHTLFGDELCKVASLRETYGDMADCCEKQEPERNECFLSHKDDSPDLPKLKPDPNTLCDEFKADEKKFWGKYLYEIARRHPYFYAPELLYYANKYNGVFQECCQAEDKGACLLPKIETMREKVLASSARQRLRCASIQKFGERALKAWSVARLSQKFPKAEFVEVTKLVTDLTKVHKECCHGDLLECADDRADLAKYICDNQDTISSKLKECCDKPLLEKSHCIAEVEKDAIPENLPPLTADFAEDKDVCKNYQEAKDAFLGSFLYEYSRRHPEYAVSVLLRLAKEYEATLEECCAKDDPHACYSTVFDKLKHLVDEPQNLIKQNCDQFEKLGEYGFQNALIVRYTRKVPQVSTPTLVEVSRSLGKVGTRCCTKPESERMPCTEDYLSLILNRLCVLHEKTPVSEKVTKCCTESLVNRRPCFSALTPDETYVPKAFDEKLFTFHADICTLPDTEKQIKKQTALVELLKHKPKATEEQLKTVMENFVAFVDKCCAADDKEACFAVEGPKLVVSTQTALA", "test": "Flocculation of ZLC in the presence of protein (turbidity, pH)", "assay_type": "physicochemical", "settings": "5 hours at 37° C.", "protocol": "Turbidity and pH of solutions are measured 5 hours after the mixtures were placed in a 37° C. oven, and the results are shown in Table 3."}, "[3]": {"test_system": "bacterial lawn on TSA plates", "test": "Zone of inhibition test", "assay_type": "cell-based", "settings": "20 μl on filter paper discs, 20 hours at 37° C.; compared with zinc oxide and lysine hydrochloride", "protocol": "A zone of inhibition test is conducted on several materials: zinc oxide, lysine hydrochloride, and ZLC. The method involves making a lawn of freshly prepared bacterial culture on TSA (trypticase soy agar) plates. Sterile filter paper discs are seeded with 20 μl of test sample (supernatant or mixture). Sample-coated filter paper discs are air dried and applied onto the bacterial lawn on TSA plates. Plates are incubated for 20 hours at 37° C."}, "[4]": {"test": "Precipitation of ZLC-BSA mixture solutions at adjusted pH", "assay_type": "physicochemical", "settings": "pure solution, pH 3-11", "text": "The pH of the solutions is adjusted to 3, 4, 5, 6, 7, 8, 9, 10 and 11 to observe the formation of precipitation. Precipitate is formed in all solutions at pH ranging from 3 to 5. […] All solutions appear clear at pH 8. A small amount of precipitation is also found at pH 9 and 10. At pH 11, precipitate is formed in all solutions. […] The formation of precipitation in acid pH requires both ZLC and BSA to be present in solution."}, "[5]": {"settings": "sample 1: DI water, 0% BSA, ZLC about 0.98% w/w or 15 mg/ml"}, "[6]": {"settings": "sample 2: 1% BSA, pH 7.2, ZLC about 0.96% w/w or 15 mg/ml"}, "[7]": {"settings": "sample 3: 1% BSA, pH adjusted to 5.1, ZLC about 0.96% w/w or 15 mg/ml"}}}
{"smiles": "NCCCCC(N)C(=O)O.NCCCCC(N)C(=O)O.O.O.[Cl-].[Cl-].[Zn+2]", "note": "(stereo not drawn) [ZLC, zinc-lysine-HCl complex]", "values": [{"measurement": "pH after aging", "setting": "[1]; 5.78 mg/ml ZLC solution", "result": 8}, {"measurement": "turbidity after aging (NTU)", "setting": "[1]; 5.78 mg/ml ZLC solution", "result": ">1000", "unit": "NTU"}, {"measurement": "pH after aging", "setting": "[1]; 11.56 mg/ml ZLC solution", "result": 7.8}, {"measurement": "turbidity after aging (NTU)", "setting": "[1]; 11.56 mg/ml ZLC solution", "result": ">1000", "unit": "NTU"}, {"measurement": "pH after aging", "setting": "[1]; 23.125 mg/ml ZLC solution", "result": 7.7}, {"measurement": "initial turbidity (NTU)", "setting": "[1]; 23.125 mg/ml ZLC solution", "result": 0.7, "unit": "NTU"}, {"measurement": "pH after aging", "setting": "[1]; 46.25 mg/ml ZLC solution", "result": 7.4}, {"measurement": "turbidity after aging (NTU)", "setting": "[1]; 46.25 mg/ml ZLC solution", "result": 2.8, "unit": "NTU"}, {"measurement": "initial turbidity (NTU)", "setting": "[1]; 46.25 mg/ml ZLC solution", "result": 1.5, "unit": "NTU"}, {"measurement": "pH after aging", "setting": "[1]; 92.5 mg/ml ZLC solution", "result": 7}, {"measurement": "turbidity after aging (NTU)", "setting": "[1]; 92.5 mg/ml ZLC solution", "result": 2.6, "unit": "NTU"}, {"measurement": "initial turbidity (NTU)", "setting": "[1]; 92.5 mg/ml ZLC solution", "result": 2.8, "unit": "NTU"}, {"measurement": "observation on dilution of the solution", "setting": "[1]; 185 mg/ml ZLC solution diluted several-fold", "result": "A white precipitate forms as the solution is diluted"}, {"measurement": "pH after aging", "setting": "[1]; 185 mg/ml ZLC solution", "result": 6.8}, {"measurement": "turbidity after aging (NTU)", "setting": "[1]; 185 mg/ml ZLC solution", "result": 4.1, "unit": "NTU"}, {"measurement": "initial turbidity (NTU)", "setting": "[1]; 185 mg/ml ZLC solution", "result": 4.7, "unit": "NTU"}, {"measurement": "stability of the complex upon dilution", "setting": "[1]; 8×, 16× and 32× diluted solutions, precipitate identified as ZnO by PXRD", "result": "disassociates upon dilution, with consequent precipitation of zinc oxide"}, {"measurement": "observation", "setting": "[2]; [5]", "result": "becomes slightly cloudy"}, {"measurement": "pH", "setting": "[2]; [5]", "result": 8}, {"measurement": "Turbidity (NTU)", "setting": "[2]; [6]", "result": ">1000", "unit": "NTU"}, {"measurement": "observation", "setting": "[2]; [6]", "result": "a lot white precipitate"}, {"measurement": "pH", "setting": "[2]; [6]", "result": 8.2}, {"measurement": "Turbidity (NTU)", "setting": "[2]; [7]", "result": ">1000", "unit": "NTU"}, {"measurement": "observation", "setting": "[2]; [7]", "result": "a lot white precipitate"}, {"measurement": "pH", "setting": "[2]; [7]", "result": 8}, {"measurement": "antibacterial activity (zone of inhibition)", "setting": "[3]", "result": "better antibacterial activity than zinc oxide alone or lysine hydrochloride alone"}, {"measurement": "formation of precipitation", "setting": "[4]", "result": "No precipitation"}]}
